In patent US20120329832A1, “Novel Insect-Repellent Coumarin Derivatives, Syntheses, and Methods of Use” (priority 2011, published 2012):
Like-named read-outs stand apart in the source and are kept apart here.

Columns and labels:
drosophila = test: Tests in vivo on drosophila: two-tube repellency test, Repulsive Index; set-up: key to RI against drosophila (FIG. 1) / RI (FIG. 2 and 3): RI = (N1−N2)/(N1+N2); N1 solvent tube, N2 compound tube; conditions: for RI against drosophila (FIG. 1): concentration not given; for repellent or attractant activity against drosophila, in words: in vivo; for repellent activity compared with DEET, in words: 1% concentration in EtOH
Protocol: Description of Test system. To evaluate repellent efficacy, compounds were added to test chambers, each containing 40 drosophila. The test was performed in 3 phases: 1) fast (flies aspirated to test tubes); 2) implementation of the system (addition of filter paper, addition of solvent containing test compound); and 3) counting of the flies (after 22 hours exposure to test compound). The number of drosophila in each tube were counted: number of flies in the “filter paper+Solvent” tube was designated N1 and the number of flies in the “filter paper impregnated with test compound” was designated N2.
The Repulsive Index (R1) is given by the following equation: (N1−N2)/(N1+N2).

[1] = reported by US EPA; cited from earlier work
acetylcholinesterase = conditions: insects and mammals; cited from earlier work
mosquitoes = conditions: absence of body odor attractants such as 1-octen-3-ol, lactic acid, or carbon dioxide; cited from earlier work
Aedes mosquitoes = conditions: cited from earlier work
Culex = conditions: cited from earlier work
[2] = share of drosophila in solvent tube (AcOEt), product concentration not given
[3] = 10% solution of product, share of drosophila in EtOH tube
[4] = 10% solution of product, share of drosophila in product tube versus EtOH tube
[5] = 20% solution of product, share of drosophila in EtOH tube
[6] = 20% solution of product, share of drosophila in product tube versus EtOH tube
[7] = share of drosophila in product tube versus EtOH tube after 22 hours, product concentration not given
[8] = share of drosophila in solvent tube (filter paper + EtOH) after 22 hours, product concentration not given
[9] = 5% solution of product, share of drosophila in EtOH tube
[10] = 5% solution of product, share of drosophila in product tube versus EtOH tube

SMILES	In vivo tests: Tube EtOH (drosophila; [3])	In vivo tests: Tube product (drosophila; [4])	In vivo tests: Tube EtOH (drosophila; [5])	In vivo tests: Tube product (drosophila; [6])	further results
CCN(CC)C(=O)c1cccc(C)c1 [DEET, N,N-Diethyl-meta-toluamide]	–	–	–	–	RI against drosophila (FIG. 1) (drosophila): > 0.9; deaths among the potential DEET-associated seizure cases [1]: 4 deaths; activity on acetylcholinesterase, in words (acetylcholinesterase): inhibit the activity; repellent activity in behavioral test, in words (mosquitoes): strong repellent activity
C=CCOc1ccc2ccc(=O)oc2c1 [EV04032]	–	–	–	–	In vivo tests: Tube AcOEt (drosophila; [2]): 62.25%
CCC(C)Oc1ccc2ccc(=O)oc2c1 (centres unmarked) [EV04058]	91.22%	8.78%	88.02%	11.98%	–
CCC(C)Oc1ccc2ccc(=O)oc2c1 (centres unmarked) [EV04070]	92.79%	7.21%	91.34%	8.66%	repellent or attractant activity against drosophila, in words (drosophila): significant repellent activity
C=C(C)C1CC=C(COc2ccc3ccc(=O)oc3c2)CC1 (centres unmarked) [EV04090]	–	–	–	–	In vivo tests: Tube CH2Cl2 (drosophila; share of drosophila in solvent tube (CH2Cl2), product concentration not given): 70.20%; Repulsive Index (RI) (drosophila; solvent CH2Cl2 according to Table 2, Tested Concentration 0.666 mmol/mL): 0.404
CCC(C)COc1ccc2ccc(=O)oc2c1 (centres unmarked) [EV04094]	89.63%	10.37%	86.47%	13.53%	–
CCC(CC)Oc1ccc2ccc(=O)oc2c1 [EV04114]	88.00%	12.00%	93.09%	6.91%	repellent or attractant activity against drosophila, in words (drosophila): significant repellent activity
CC(=O)OC(C)C(=O)Oc1ccc2ccc(=O)oc2c1 (centres unmarked) [EV04122]	–	–	–	–	In vivo tests: Tube product (drosophila; [7]): 68.18%; In vivo tests: Tube EtOH (drosophila; [8]): 31.82%
CCCCN(CCCC)C(=O)COc1ccc2ccc(=O)oc2c1 [EV05120]	90.36%	9.64%	85.58%	14.42%	RI (FIG. 2 and 3) (drosophila; 10% solution in EtOH): ~0.8; RI (FIG. 2 and 3) (drosophila; 20% solution in EtOH): ~0.7; repellent or attractant activity against drosophila, in words (drosophila): acted as repellents
CCCCN(CCCC)C(=O)c1ccc2ccc(=O)oc2c1 [EV05138]	82.54%	17.46%	86.27%	13.73%	–
CC[C@H](C)OC(=O)c1ccc2ccc(=O)oc2c1 [EV05178]	54.77%	45.23%	85.50%	14.50%	RI (FIG. 2 and 3) (drosophila; 10% solution in EtOH): ~0.07; RI (FIG. 2 and 3) (drosophila; 20% solution in EtOH): ~0.7
CCC(CC)Oc1ccc2oc(=O)ccc2c1 [EV06018]	–	–	–	–	In vivo tests: Tube AcOEt (drosophila; [2]): 81.07%
CCCCCOc1ccc2ccc(=O)oc2c1 [EV06026]	87.53%	12.47%	94.12%	5.88%	–
CC(C)C(C)Oc1ccc2ccc(=O)oc2c1 (centres unmarked) [EV06028]	86.74%	13.26%	94.21%	5.79%	–
CC(C)CCOc1ccc2ccc(=O)oc2c1 [EV06036]	86.10%	13.90%	86.63%	13.73%	–
CCCC(C)Oc1ccc2ccc(=O)oc2c1 (centres unmarked) [EV06044]	83.91%	16.08%	96.12%	3.82%	repellent or attractant activity against drosophila, in words (drosophila): significant repellent activity
CCC(CC)Oc1cc(=O)oc2ccccc12 [EV06062]	93.10%	6.90%	98.26%	1.74%	repellent activity compared with DEET, in words (drosophila): remains as good a repellent as DEET; In vivo tests: Tube EtOH (drosophila; 1% solution of product, share of drosophila in EtOH tube): 87.08%; In vivo tests: Tube product (drosophila; 1% solution of product, share of drosophila in product tube versus EtOH tube): 12.92%; In vivo tests: Tube EtOH (drosophila; [9]): 96.08%; In vivo tests: Tube product (drosophila; [10]): 3.20%; Repulsive Index (RI) (drosophila; EtOH, fourth Tested Concentration, 0.056 mmol/mL (1% solution)): 0.742

SMILES	In vivo tests: Tube EtOH (drosophila; [3])	In vivo tests: Tube product (drosophila; [4])	In vivo tests: Tube EtOH (drosophila; [5])	In vivo tests: Tube product (drosophila; [6])	further results
CCC(C)Oc1ccc2oc(=O)ccc2c1 (centres unmarked) [EV06068]	90.91%	9.09%	93.85%	6.15%	–
CCC(C)Oc1cc(=O)oc2ccccc12 (centres unmarked) [EV06088]	90.50%	9.50%	91.04%	8.96%	–
CCCCCCCCN(CCCCCCCC)C(=O)COc1ccc2ccc(=O)oc2c1 [EV06092]	–	–	–	–	In vivo tests: Tube product (drosophila; [7]): 32.34%; In vivo tests: Tube EtOH (drosophila; [8]): 67.66%
CCCCCCCCN(CCCCCCCC)C(=O)c1ccc2ccc(=O)oc2c1 [EV06096]	67.84%	32.16%	95.33%	4.67%	repellent or attractant activity against drosophila, in words (drosophila): acted as repellents
CCCC(C)Oc1cc(=O)oc2ccccc12 (centres unmarked) [EV06098]	79.29%	20.71%	97.57%	2.43%	–
CCCCCCOc1ccc2ccc(=O)oc2c1 [EV06110]	91.09%	8.91%	89.06%	10.94%	–
CC(C)C(C)Oc1cc(=O)oc2ccccc12 (centres unmarked) [EV06128]	–	–	66.83%	33.17%	–
CCCCCOc1cc(=O)oc2ccccc12 [EV06136]	–	–	–	–	In vivo tests: Tube AcOEt (drosophila; 20% solution of product, share of drosophila in AcOEt tube): 88.56%; In vivo tests: Tube product (drosophila; 20% solution of product, share of drosophila in product tube versus AcOEt tube): 11.44%
CC(C)CCOc1cc(=O)oc2ccccc12 [EV06140]	90.10%	9.90%	91.92%	8.08%	–
CCCCCCCCOc1ccc2ccc(=O)oc2c1 [EV06144]	90.00%	10.00%	91.73%	8.37%	In vivo tests: Tube EtOH (drosophila; [9]): 91.35%; In vivo tests: Tube product (drosophila; [10]): 8.65%
CCCCCCC(C)Oc1ccc2ccc(=O)oc2c1 (centres unmarked) [EV06148]	93.66%	6.34%	96.00%	4.00%	repellent activity compared with DEET, in words (drosophila): remained as effective a repellent as DEET
CCCC(C)Oc1ccc2oc(=O)ccc2c1 (centres unmarked) [EV06154]	93.03%	6.97%	96.57%	3.43%	repellent activity compared with DEET, in words (drosophila): performed effectively as a repellent
CC(C)(C)COc1ccc2ccc(=O)oc2c1 [EV06162]	–	–	–	–	repellent or attractant activity against drosophila, in words (drosophila): strong drosophila attractant
CCC(C)NC(=O)c1ccc2ccc(=O)oc2c1 (centres unmarked) [EV06166]	–	–	–	–	RI against drosophila (FIG. 1) (drosophila): ~0.2
CCC(C)NC(=O)COc1ccc2ccc(=O)oc2c1 (centres unmarked) [EV06178]	–	–	–	–	RI against drosophila (FIG. 1) (drosophila): ~−0.2; repellent or attractant activity against drosophila, in words (drosophila): appeared to provide attractant activity
CCC(C)OC(=O)N1CCCCC1CCO (centres unmarked) [picaridine, hydroxyethyl isobutyl piperidine carboxylate]	–	–	–	–	RI against drosophila (FIG. 1) (drosophila): > 0.6; protection against Aedes mosquitoes (Aedes mosquitoes; 7% solution): little or no protection; protection time against Aedes (Aedes mosquitoes; 15% solution): about one; protection time against Culex (Culex; 7% solution): about 2.5 hours; protection time against Culex (Culex; 15% solution): 4.8 h
